Data on four molecules can be found in patent US20080319020A1, “4-Oxadiazolyl-Piperidine Compounds and Use Thereof” (Purdue Pharma L.P., priority 2005, published 2008).

Where two headings read alike, the source gives them in different places.

For assay [1], the target named is T1, delta opioid receptor (Homo sapiens, UniProt P41143).
T1 construct: purchased Perkin Elmer; host or cells: CHO-K1
Briefly: δ opioid receptor binding assay ([3H]-Naltrindole). The protocol:
Radioligand dose-displacement assays used 0.2 nM [^3H]-Naltrindole (NEN; 33.0 Ci/mmole) with 10-20 μg membrane protein (recombinant delta opioid receptor expressend in CHO-K1 cells; Perkin Elmer) in a final volume of 500 μl binding buffer (5 mM MgCl2, 5% DMSO, 50 mM Trizma base, pH 7.4). Non-specific binding was determined in the presence of 25 μM unlabeled naloxone. All reactions were performed in 96-deep well polypropylene plates for 1 h at room temperature. Binding reactions were determined by rapid filtration onto 96-well Unifilter GF/C filter plates (Packard) presoaked in 0.5% polyethylenimine (Sigma). Harvesting was performed using a 96-well tissue harvester (Packard) followed by five filtration washes with 500 μl ice-cold binding buffer. Filter plates were subsequently dried at 50° C. for 1-2 hours. Fifty μl/well scintillation cocktail (MicroScint, Packard) was added and plates were counted in a Packard Top-Count for 1 min/well.

Assay [2] has as its target T2, human opioid receptor-like (ORL-1) receptor (Homo sapiens, UniProt P41146).
T2 construct: host or cells: HEK-293
The assay can be described thus: ORL-1 receptor radioligand dose-displacement binding assay ([3H]-nociceptin). As to the method: All reagents are obtained from Sigma (St. Louis, Mo.) unless noted otherwise. Membranes from recombinant HEK-293 cells expressing the human opioid receptor-like (ORL-1) receptor (Perkin Elmer, Boston, Mass.) are prepared by lysing cells in ice-cold hypotonic buffer (2.5 mM MgCl2, 50 mM HEPES, pH 7.4) (10 mL/10 cm dish), followed by homogenization with a tissue grinder/teflon pestle. Membranes are collected by centrifugation at 30,000×g for 15 min at 4° C., and pellets are resuspended in hypotonic buffer to a final concentration of 1-3 mg/mL. Protein concentrations are determined using the BioRad (Hercules, Calif.) protein assay reagent with bovine serum albumen as standard. Aliquots of the ORL-1 receptor membranes are stored at −80° C.
(§1) Radioligand dose-displacement binding assays for ORL-1 and μ receptors use 0.1 nM [^3H]-nociceptin or 0.2 nM [^3H]-diprenorphine (NEN, Boston, Mass.), respectively, with […] membrane protein/well in a final volume of […] binding buffer (10 mM MgCl2, 1 mM EDTA, 5% DMSO, 50 mM HEPES, pH 7.4). Reactions are carried out in the absence or presence of increasing concentrations of unlabeled nociceptin (American Peptide Company, Sunnyvale, Calif.) or naloxone, for ORL-1 and […], respectively. All reactions are conducted in 96-deep well polypropylene plates for 1-2 h at room temperature. Binding reactions are terminated by rapid filtration onto 96-well Unifilter GF/C filter plates (Packard, Meriden, Conn.) presoaked in 0.5% polyethylenimine using a 96-well tissue harvester (Brandel, Gaithersburg, Md.) followed by three filtration washes with 500 μL of ice-cold binding buffer. Filter plates are subsequently dried at 50° C. for 2-3 h. BetaScint scintillation cocktail (Wallac, Turku, Finland) is added (50 μl/well), and plates are counted using a Packard Top-Count for 1 min/well. The data are analyzed using the one-site competition curve fitting functions in GraphPad PRISM v. 3.0 (San Diego, Calif.).

For assay [3], the target named is T3, kappa opioid receptor (Homo sapiens, UniProt P41145).
T3 construct: expressed in transfected cells; host or cells: HEK-293
The assay can be described thus: κ opioid receptor binding assay ([3H]-U69,593). As to the method: Membranes from recombinant HEK-293 cells expressing the human kappa opioid receptor (kappa) (cloned in house) were prepared by lysing cells in ice cold hypotonic buffer (2.5 mM MgCl2, 50 mM HEPES, pH 7.4) (10 ml/10 cm dish) followed by homogenization with a tissue grinder/teflon pestle. Membranes were collected by centrifugation at 30,000×g for 15 min at 4° C. and pellets resuspended in hypotonic buffer to a final concentration of 1-3 mg/ml. Protein concentrations were determined using the BioRad protein assay reagent with bovine serum albumen as standard. Aliquots of kappa receptor membranes were stored at −80° C.
Radioligand dose displacement assays used 0.4-0.8 nM [^3H]-U69,593 (NEN; 40 Ci/mmole) with 10-20 μg membrane protein (recombinant kappa opioid receptor expressed in HEK 293 cells; in-house prep) in a final volume of 200 μl binding buffer (5% DMSO, 50 mM Trizma base, pH 7.4). Non-specific binding was determined in the presence of 10 μM unlabeled naloxone or U69,593. All reactions were performed in 96-well polypropylene plates for 1 h at room temperature. Binding reactions were determined by rapid filtration onto 96-well Unifilter GF/C filter plates (Packard) presoaked in 0.5% polyethylenimine (Sigma). Harvesting was performed using a 96-well tissue harvester (Packard) followed by five filtration washes with 200 μl ice-cold binding buffer. Filter plates were subsequently dried at 50° C. for 1-2 hours. Fifty μl/well scintillation cocktail (MicroScint; Packard) was added and plates were counted in a Packard Top-Count for 1 min/well.

Assay [4] has as its target T4, μ opioid receptor (Homo sapiens, UniProt P35372). The assay can be described thus: μ-receptor [35S]GTPγS functional assay. Format: biochemical. Particulars: for Emax: maximal effect relative to DAMGO, read-out: μ GTP Emax. As to the method:
[^35S]GTPγS functional assays are conducted using freshly thawed ORL-1 or μ-receptor membranes, as appropriate. Assay reactions are prepared by sequentially adding the following reagents to binding buffer (100 mM NaCl, 10 mM MgCl2, 20 mM HEPES, pH 7.4) on ice (final concentrations indicated): membrane protein (0.066 mg/mL for ORL-1 receptor and 0.026 mg/mL for μ-receptor), saponin ([…]), GDP ([…]) and [^35S]GTPγS (0.20 nM; NEN). Aliquots of the prepared membrane solution (190 μL/well) are transferred to 96-shallow well polypropylene plates containing 10 μL of 20× concentrated stock solutions of the agonist nociceptin prepared in dimethyl sulfoxide (“DMSO”). Plates are incubated for 30 min at room temperature with shaking. Reactions are terminated by rapid filtration onto 96-well Unifilter GF/B filter plates (Packard, Meriden, Conn.) using a 96-well tissue harvester (Brandel, Gaithersburg, Md.) followed by three filtration washes with 200 μL of ice-cold binding buffer (10 mM NaH2PO4, 10 mM Na2HPO4, pH 7.4). Filter plates are subsequently dried at 50° C. for 2-3 h. BetaScint scintillation cocktail (Wallac, Turku, Finland) is added (50 μL/well) and plates are counted using a Packard Top-Count for 1 min/well. Data are analyzed using the sigmoidal dose-response curve fitting functions in GraphPad PRISM, v. 3.0.
μ GTP EC50 is the concentration of a compound providing 50% of the maximal response for the compound at a μ receptor.
μ GTP Emax % is the maximal effect elicited by a compound relative to the effect elicited by [D-Ala2, N-methyl-Phe4, Gly-ol5]-enkephalin (“DAMGO”), a standard μ agonist. Generally, the μ GTP Emax (%) value measures the efficacy of a compound to treat or prevent pain or diarrhea.
A general note: GTPγS resists hydrolysis and so accumulates on activated G proteins.

Assay [5] deals with T3, kappa opioid receptor. The assay can be described thus: κ opioid receptor functional [35S]GTPγS binding assay. Format: biochemical. Particulars: for Emax: maximal effect relative to U69,593, read-out: κ GTP Emax. As to the method:
κ GTP EC50 is the concentration of a compound providing 50% of the maximal response for the compound at an K receptor.
κ GTP Emax % is the maximal effect elicited by a compound relative to the effect elicited by U69,593.
(§2) The κ and δ opioid receptor functional [^35S]GTPγS binding assays were conducted as follows. Kappa or delta opioid receptor membrane solution was prepared by sequentially adding final concentrations of 0.026 μg/μl membrane protein (kappa: in-house, delta: Perkin Elmer), 10 μg/ml saponin, 3 μM GDP and 0.20 nM [^35S]GTPγS to binding buffer (100 mM NaCl, 10 mM MgCl2, 20 mM HEPES, pH 7.4) on ice. The prepared membrane solution (190 μl/well) was transferred to 96-shallow well polypropylene plates containing 10 μl of 20× concentrated stock solutions of agonist prepared in DMSO. Plates were incubated for 30 min at room temperature with shaking. Reactions were terminated by rapid filtration onto 96-well tissue harvester (Packard) and followed by three filtration washes with 200 μl ice-cold binding buffer (10 mM NaH2PO4), 10 mM Na2HPO4, pH 7.4). Filter plates were subsequently dried at 50° C. for 2-3 hours. Fifty μl/well scintillation cocktail (MicroScint20, Packard) was added and plates were counted in a Packard Top-Count for 1 min/well.

Assay [6] has as its target T4, μ opioid receptor. The assay can be described thus: μ-opioid receptor radioligand dose-displacement binding assay ([3H]-diprenorphine). The protocol:
as §1

The target in assay [7] is T1, delta opioid receptor. The assay can be described thus: δ opioid receptor functional [35S]GTPγS binding assay. Format: biochemical. The settings on record: for Emax: maximal effect relative to met-enkephalin, read-out: δ GTP Emax. The protocol: δ GTP EC50 is the concentration of a compound providing 50% of the maximal response for the compound at an δ receptor.
δ GTP Emax % is the maximal effect elicited by a compound relative to the effect elicited by met-enkephalin.
as §2

Assay [8] has as its target T5, ORL-1 receptor (Homo sapiens, UniProt P41146).
T5 construct: host or cells: HEK-293
Briefly: ORL-1 receptor [35S]GTPγS functional assay. Format: biochemical. The protocol:
Filter plates are subsequently dried at 50° C. for 2-3 h. […] 3.0.

[9] abbreviates: Ki for binding to μ-opioid receptors.

T2 sequence (P41146 whole entry): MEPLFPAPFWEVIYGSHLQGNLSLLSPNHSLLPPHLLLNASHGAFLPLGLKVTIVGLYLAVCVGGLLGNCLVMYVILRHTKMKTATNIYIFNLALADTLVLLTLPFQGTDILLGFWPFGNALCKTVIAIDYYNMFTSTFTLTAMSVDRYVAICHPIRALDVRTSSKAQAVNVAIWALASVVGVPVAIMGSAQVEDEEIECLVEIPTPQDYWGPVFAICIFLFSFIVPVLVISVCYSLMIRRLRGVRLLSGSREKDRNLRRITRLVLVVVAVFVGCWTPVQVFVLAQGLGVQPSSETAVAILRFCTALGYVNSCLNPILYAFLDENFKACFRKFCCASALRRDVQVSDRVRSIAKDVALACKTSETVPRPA
T3 sequence (P41145 whole entry): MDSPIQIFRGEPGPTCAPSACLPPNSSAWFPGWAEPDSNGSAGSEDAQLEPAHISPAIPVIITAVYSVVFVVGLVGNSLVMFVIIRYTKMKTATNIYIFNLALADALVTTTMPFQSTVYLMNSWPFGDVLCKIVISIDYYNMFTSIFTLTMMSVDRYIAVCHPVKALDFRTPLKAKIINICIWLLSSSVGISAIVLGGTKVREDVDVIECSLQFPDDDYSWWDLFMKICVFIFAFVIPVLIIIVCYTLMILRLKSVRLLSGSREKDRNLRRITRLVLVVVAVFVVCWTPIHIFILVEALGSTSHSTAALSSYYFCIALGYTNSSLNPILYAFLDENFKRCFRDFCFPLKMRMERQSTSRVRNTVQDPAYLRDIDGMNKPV
T4 sequence (P35372 whole entry): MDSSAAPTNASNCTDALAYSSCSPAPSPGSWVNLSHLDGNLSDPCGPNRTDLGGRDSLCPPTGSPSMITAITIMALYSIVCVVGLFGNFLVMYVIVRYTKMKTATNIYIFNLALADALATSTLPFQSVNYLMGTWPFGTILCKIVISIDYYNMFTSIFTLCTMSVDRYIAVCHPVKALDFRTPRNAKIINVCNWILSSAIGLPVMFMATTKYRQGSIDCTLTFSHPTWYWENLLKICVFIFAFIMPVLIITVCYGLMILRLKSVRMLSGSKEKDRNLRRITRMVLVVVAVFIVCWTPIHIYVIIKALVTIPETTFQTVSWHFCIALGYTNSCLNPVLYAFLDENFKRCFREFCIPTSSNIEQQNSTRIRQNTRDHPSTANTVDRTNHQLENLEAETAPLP
T1 sequence (P41143 whole entry): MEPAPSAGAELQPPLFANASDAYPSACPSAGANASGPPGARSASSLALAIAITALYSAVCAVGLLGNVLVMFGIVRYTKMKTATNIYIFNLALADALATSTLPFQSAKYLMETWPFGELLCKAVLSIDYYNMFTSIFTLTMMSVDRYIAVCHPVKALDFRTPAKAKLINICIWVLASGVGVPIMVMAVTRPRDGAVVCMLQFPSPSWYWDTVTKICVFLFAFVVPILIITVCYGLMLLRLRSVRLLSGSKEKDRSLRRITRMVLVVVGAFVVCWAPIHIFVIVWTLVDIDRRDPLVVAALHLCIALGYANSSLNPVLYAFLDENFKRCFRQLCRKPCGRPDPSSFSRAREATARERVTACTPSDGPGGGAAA
T5 sequence (P41146 whole entry): as the sequence (P41146 whole entry) above

In general, Ki refers to the equilibrium dissociation constant of an inhibitor or competing ligand from its target. As usually defined, the EC50 is the concentration needed to bring the measured effect to its halfway point. What is called Emax is the maximal effect, on the per cent scale that the assay sets. In the case of `NC(=O)Cc1nc(C2(c3ccccc3)CCN(CCC(C(=O)N3CCCC3)(c3ccccc3)c3ccccc3)CC2)no1` [AFX], the Ki worked out at 2320 nM in assay [1]; 1290 nM in assay [2]; 365 nM in assay [3]; 4.8 nM in assay [6] (setting [9]); 4.82 nM in assay [6] (μ Ki). For the same molecule, the results for the EC50 in assay [4] and in assay [5] were 8.09 nM and 3830 nM, respectively. For the same molecule, the Emax in assay [4] was determined as 90%; in assay [5] it was 41.7%.

For `CCOC(=O)Cc1nc(C2(c3ccccc3)CCN(CCC(C(=O)N3CCCC3)(c3ccccc3)c3ccccc3)CC2)no1` [AGE], the Ki in assay [1] (read-out: δ Ki) stood at 341 nM; in assay [2] it was 3850 nM; in assay [3] (read-out: κ Ki) it was 91.9 nM; in assay [6] (read-out: Ki for binding to μ-opioid receptors) it was 1.3 nM; in assay [6] (read-out: μ Ki), 1.29 nM. Further, the Emax was determined as 103% in assay [4], 104% in assay [7] and 56% in assay [5]. In addition, the values for the EC50 in assay [4] (read-out: μ GTP EC50), in assay [7] (read-out: δ GTP EC50) and in assay [5] (read-out: κ GTP EC50) were 2.03 nM, 21.5 nM and 704 nM, respectively.

With `CN(C)C(=O)C(CCN1CCC(c2ccccc2)(c2noc(CC(N)=O)n2)CC1)(c1ccccc1)c1ccccc1` [AFE], the Ki in assay [1] was determined as 3620 nM; in assay [2], 1840 nM; in assay [3] it was 152 nM; in assay [6] (setting [9]), 5.9 nM; in assay [6] (μ Ki) it was 5.92 nM. Further, the figures for the EC50 in assay [4] and in assay [5] were 16.1 nM and 1260 nM, respectively. In addition, the values for the Emax in assay [4] and in assay [5] were 116% and 44.7%, respectively.

With `CCOC(=O)Cc1nc(C2(c3ccccc3)CCN(CCC(C(=O)N(C)C)(c3ccccc3)c3ccccc3)CC2)no1` [AFL], the Ki stood at 223 nM in assay [1]; 696 nM in assay [2]; 32.9 nM in assay [3]; 1.1 nM in assay [6] (setting [9]); 1.11 nM in assay [6] (μ Ki). Also, the EC50 in assay [4] was 1.04 nM; in assay [7], 84 nM; in assay [5], 1680 nM; in assay [8], over 20000 nM. Further, the Emax is 117% in assay [4]; 114% in assay [7]; 52.7% in assay [5]; 28% in assay [8] (maximal effect relative to nociceptin, read-out: ORL1 GTP Emax).
